Laboratory results published in PubChem BioAssay AID248 (DTP/NCI, 2004).
Inconclusive results and toxic doses are left out.

Tested on: L1210 leukemia ip in BDF1 mice, survival T/C
Test: NCI In Vivo Anticancer Drug Screen. Data for tumor model L1210 Leukemia (intraperitoneal) in B6D2F1 (BDF1) mice
Conditions: endpoint: mean survival time, higher = longer survival
Procedure, shortened: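 Transplantable tumor model; survival measured in treated vs vehicle control mice. Value = treated/control.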

[1] = dose: 100.0 mg/kg/injection, schedule: Q04DX003 (ip), vehicle: saline
[2] = dose: 200.0 mg/kg/injection, schedule: Q04DX003 (ip), vehicle: saline
[3] = dose: 12.5 mg/kg/injection, schedule: Q01DX009 (ip), vehicle: saline with Tween-80
[4] = dose: 25.0 mg/kg/injection, schedule: Q01DX009 (ip), vehicle: saline with Tween-80
[5] = dose: 100.0 mg/kg/injection, schedule: Q01DX009 (ip), vehicle: Klucel (hydroxypropylcellulose) (HPC)
[6] = dose: 200.0 mg/kg/injection, schedule: Q01DX009 (ip), vehicle: Klucel (hydroxypropylcellulose) (HPC)
[7] = dose: 400.0 mg/kg/injection, schedule: Q01DX009 (ip), vehicle: Klucel (hydroxypropylcellulose) (HPC)
[8] = dose: 100.0 mg/kg/injection, schedule: Q04DX002 (ip), vehicle: Klucel (hydroxypropylcellulose) (HPC)
[9] = dose: 200.0 mg/kg/injection, schedule: Q04DX002 (ip), vehicle: Klucel (hydroxypropylcellulose) (HPC)
[10] = dose: 400.0 mg/kg/injection, schedule: Q04DX002 (ip), vehicle: Klucel (hydroxypropylcellulose) (HPC)
[11] = dose: 100.0 mg/kg/injection, schedule: Q01DX001 (ip), vehicle: carboxymethylcellulose (CMC)
[12] = dose: 200.0 mg/kg/injection, schedule: Q01DX001 (ip), vehicle: carboxymethylcellulose (CMC)
[13] = dose: 400.0 mg/kg/injection, schedule: Q01DX001 (ip), vehicle: carboxymethylcellulose (CMC)
[14] = dose: 100.0 mg/kg/injection, schedule: Q01DX001 (ip), vehicle: saline
[15] = dose: 200.0 mg/kg/injection, schedule: Q01DX001 (ip), vehicle: saline
[16] = dose: 100.0 mg/kg/injection, schedule: Q01DX009 (ip), vehicle: saline
[17] = dose: 100.0 mg/kg/injection, schedule: Q04DX002 (ip), vehicle: saline with Tween-80
[18] = dose: 200.0 mg/kg/injection, schedule: Q04DX002 (ip), vehicle: saline with Tween-80
[19] = dose: 400.0 mg/kg/injection, schedule: Q01DX001 (ip), vehicle: saline
[20] = dose: 50.0 mg/kg/injection, schedule: Q01DX001 (ip), vehicle: carboxymethylcellulose (CMC)

`CO[C@@]12[C@H](COC(N)=O)C3=C(C(=O)C(C)=C(NCCO)C3=O)N1C[C@@H]1N[C@@H]12` was tested, and the T/C (dose: 2.9 mg/kg/injection, schedule: Q01DX001 (ip), vehicle: acetone) was 113 % of control, the T/C (dose: 4.3 mg/kg/injection, schedule: Q01DX001 (ip), vehicle: acetone) was 117 % of control and the T/C (dose: 6.6 mg/kg/injection, schedule: Q01DX001 (ip), vehicle: saline) was 113 % of control. For the same compound, the T/C (dose: 7.5 mg/kg/injection, schedule: Q01DX009 (ip), vehicle: saline) was 91 % of control, the T/C (dose: 9.9 mg/kg/injection, schedule: Q01DX001 (ip), vehicle: saline) was 111 % of control and the T/C (dose: 22.0 mg/kg/injection, schedule: Q01DX001 (ip), vehicle: saline) was 113 % of control. For the same compound, the T/C (dose: 33.0 mg/kg/injection, schedule: Q01DX001 (ip), vehicle: acetone) was 159 % of control.

For `COC1CC(OC(=O)c2ccc(C)cc2)C(COC(=O)c2ccc(C)cc2)O1` (stereo not given), the T/C [1] was 98 % of control, the T/C [2] was 102 % of control and the T/C (dose: 400.0 mg/kg/injection, schedule: Q04DX003 (ip), vehicle: saline) was 98 % of control.

`O=C(O)C1Cc2nc[nH]c2CN1CO` (stereo not given) was tested, and the T/C [3] was 122 % of control, the T/C [4] was 113 % of control and the T/C (dose: 100.0 mg/kg/injection, schedule: Q01DX009 (ip), vehicle: saline with Tween-80) was 263 % of control.

With `CCOC(=O)C(Cc1ccccc1)(NC=O)C(=O)OCC` the T/C [5] was 94 % of control, the T/C [6] was 98 % of control and the T/C [7] was 96 % of control.

With `Clc1ccc2[nH]ncc2c1` the T/C [8] was 88 % of control, the T/C [9] was 98 % of control and the T/C [10] was 98 % of control.

With `CCN(CC)CCCCN(C)c1ccccc1` the T/C [3] was 89 % of control, the T/C (dose: 12.5 mg/kg/injection, schedule: Q04DX003 (ip), vehicle: acetone) was 93 % of control and the T/C [4] was 97 % of control. For the same compound, the T/C (dose: 25.0 mg/kg/injection, schedule: Q04DX003 (ip), vehicle: acetone) was 89 % of control, the T/C (dose: 50.0 mg/kg/injection, schedule: Q01DX009 (ip), vehicle: saline with Tween-80) was 97 % of control and the T/C (dose: 50.0 mg/kg/injection, schedule: Q04DX003 (ip), vehicle: acetone) was 98 % of control.

For `OCn1nc(Cl)c2cc(Cl)ccc21`, the T/C [11] was 103 % of control, the T/C [12] was 98 % of control and the T/C [13] was 100 % of control.

In the case of `O=C/C=C\c1ccccc1O`, the T/C [14] is reported as 105 % of control and the T/C [15] is reported as 105 % of control.

With `CCCCCCCCCCOc1ccc(OCCCCCCCCC)cc1` the T/C (dose: 100.0 mg/kg/injection, schedule: Q04DX003 (ip), vehicle: saline with Tween-80) was 94 % of control, the T/C (dose: 200.0 mg/kg/injection, schedule: Q04DX003 (ip), vehicle: saline with Tween-80) was 100 % of control and the T/C (dose: 400.0 mg/kg/injection, schedule: Q04DX003 (ip), vehicle: saline with Tween-80) was 87 % of control.

In the case of `Cc1cccc(C)c1OC(=O)Nc1cccc(Cl)c1`, the T/C [8] is reported as 114 % of control, the T/C [9] is reported as 105 % of control and the T/C [10] is reported as 105 % of control.

`NCc1ccc(F)cc1` was tested, and the T/C (dose: 50.0 mg/kg/injection, schedule: Q01DX009 (ip), vehicle: saline) was 102 % of control, the T/C [16] was 95 % of control and the T/C [1] was 100 % of control. The T/C (dose: 200.0 mg/kg/injection, schedule: Q01DX009 (ip), vehicle: saline) was 95 % of control and the T/C [2] was 92 % of control.

In the case of `NC1(C(=O)O)Cc2ccccc2C1`, the T/C (dose: 50.0 mg/kg/injection, schedule: Q01DX001 (ip), vehicle: olive oil, sesame oil, peanut oil) is reported as 101 % of control, the T/C (dose: 100.0 mg/kg/injection, schedule: Q01DX001 (ip), vehicle: olive oil, sesame oil, peanut oil) is reported as 101 % of control and the T/C (dose: 200.0 mg/kg/injection, schedule: Q01DX001 (ip), vehicle: olive oil, sesame oil, peanut oil) is reported as 112 % of control. For the same compound, the T/C (dose: 400.0 mg/kg/injection, schedule: Q01DX001 (ip), vehicle: olive oil, sesame oil, peanut oil) was 104 % of control.

`NC(N)=NC=O` was tested, and the T/C [17] was 105 % of control and the T/C [18] was 98 % of control.

For `CCSCCOP(=S)(N(CC)CC)N(CC)CC`, the T/C [17] was 88 % of control, the T/C [18] was 95 % of control and the T/C (dose: 400.0 mg/kg/injection, schedule: Q04DX002 (ip), vehicle: saline with Tween-80) was 104 % of control.

For `C=CC12CN(C)C3C4COC(CC41)C1(C(=O)Nc4ccccc41)C32` (stereo not given), the T/C (dose: 75.0 mg/kg/injection, schedule: Q01DX001 (ip), vehicle: other) was 102 % of control.

In the case of `Cc1cccc(SC(=O)Nc2ccc([N+](=O)[O-])cc2Cl)c1`, the T/C [8] is reported as 100 % of control, the T/C [9] is reported as 116 % of control and the T/C [10] is reported as 92 % of control.

With `CCCCCCOc1ccc(C(=O)C(=O)c2ccccc2)cc1` the T/C [11] was 109 % of control, the T/C [12] was 88 % of control and the T/C [13] was 97 % of control.

In the case of `CCOC(=O)CCc1ccc(N=NN(C)C)cc1`, the T/C (dose: 125.0 mg/kg/injection, schedule: Q01DX009 (ip), vehicle: saline) is reported as 115 % of control.

In the case of `CC(C)(C)CC(C)(C)N(CSc1ccc(Cl)cc1)CSc1ccc(Cl)cc1`, the T/C [14] is reported as 100 % of control, the T/C [15] is reported as 93 % of control and the T/C [19] is reported as 87 % of control.

With `CN(C)c1ccc(C=C2c3ccccc3-c3ccccc32)cc1` the T/C (dose: 100.0 mg/kg/injection, schedule: Q04DX003 (ip), vehicle: Klucel (hydroxypropylcellulose) (HPC)) was 97 % of control, the T/C (dose: 200.0 mg/kg/injection, schedule: Q04DX003 (ip), vehicle: Klucel (hydroxypropylcellulose) (HPC)) was 96 % of control and the T/C (dose: 400.0 mg/kg/injection, schedule: Q04DX003 (ip), vehicle: Klucel (hydroxypropylcellulose) (HPC)) was 94 % of control.

`Nn1cnc2c(SCc3ccccc3)ncnc21` was tested, and the T/C [20] was 101 % of control, the T/C (dose: 62.0 mg/kg/injection, schedule: Q01DX015 (ip), vehicle: carboxymethylcellulose (CMC)) was 115 % of control and the T/C (dose: 93.0 mg/kg/injection, schedule: Q01DX015 (ip), vehicle: carboxymethylcellulose (CMC)) was 121 % of control. For the same compound, the T/C [11] was 101 % of control, the T/C (dose: 140.0 mg/kg/injection, schedule: Q01DX015 (ip), vehicle: carboxymethylcellulose (CMC)) was 158 % of control and the T/C [12] was 122 % of control.

In the case of `NS(=O)(=O)CS(N)(=O)=O`, the T/C [14] is reported as 100 % of control, the T/C [15] is reported as 96 % of control and the T/C [19] is reported as 96 % of control.

`O=C(O)CCC(CC(=O)O)c1ccccc1` (stereo not given) was tested, and the T/C [5] was 97 % of control, the T/C [6] was 96 % of control and the T/C [7] was 93 % of control.

In the case of `O=C(O)CCN(CCC(=O)O)CCC(=O)O`, the T/C (dose: 44.0 mg/kg/injection, schedule: Q01DX009 (ip), vehicle: alkali diluted with saline) is reported as 97 % of control, the T/C (dose: 66.0 mg/kg/injection, schedule: Q01DX009 (ip), vehicle: saline) is reported as 96 % of control and the T/C (dose: 67.0 mg/kg/injection, schedule: Q01DX009 (ip), vehicle: alkali diluted with saline) is reported as 98 % of control. For the same compound, the T/C (dose: 100.0 mg/kg/injection, schedule: Q01DX009 (ip), vehicle: alkali diluted with saline) was 101 % of control, the T/C [16] was 94 % of control and the T/C (dose: 100.0 mg/kg/injection, schedule: Q04DX003 (ip), vehicle: alkali diluted with saline) was 100 % of control. The T/C (dose: 150.0 mg/kg/injection, schedule: Q01DX009 (ip), vehicle: alkali diluted with saline) was 103 % of control, the T/C (dose: 150.0 mg/kg/injection, schedule: Q01DX009 (ip), vehicle: saline) was 102 % of control and the T/C (dose: 200.0 mg/kg/injection, schedule: Q01DX009 (ip), vehicle: saline with Tween-80) was 101 % of control. For the same compound, the T/C (dose: 200.0 mg/kg/injection, schedule: Q04DX003 (ip), vehicle: alkali diluted with saline) was 108 % of control, the T/C (dose: 400.0 mg/kg/injection, schedule: Q01DX009 (ip), vehicle: saline with Tween-80) was 100 % of control and the T/C (dose: 400.0 mg/kg/injection, schedule: Q04DX003 (ip), vehicle: alkali diluted with saline) was 97 % of control.

`O=C(CC(c1ccccc1)(c1ccccc1)c1ccccc1)c1ccccc1` was tested, and the T/C [20] was 98 % of control, the T/C [11] was 93 % of control and the T/C [12] was 90 % of control. For the same compound, the T/C [13] was 93 % of control.

With `N#CC1C(=O)NC(c2ccccc2)=CC1c1ccccc1` (stereo not given) the T/C [14] was 100 % of control, the T/C [15] was 94 % of control and the T/C [19] was 94 % of control.
